PubChem BioAssay (NCI)
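The compound was tested at five concentrations on cells cultured in 96-well plates, with a 48-hour exposure period. The concentration for full growth arrest is given as TGI.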

Assays:
Assay in all cases: growth of human tumour cells (NCI), 48 h
A549 NSCLC = system: A549 NSCLC
NCI-H460 lung = system: NCI-H460 lung
MDA-MB-231 breast = system: MDA-MB-231 breast
HOP-62 NSCLC = system: HOP-62 NSCLC
LOX IMVI melanoma = system: LOX IMVI melanoma
DU-145 prostate = system: DU-145 prostate
ACHN renal = system: ACHN renal
SNB-19 CNS = system: SNB-19 CNS
SK-MEL-28 melanoma = system: SK-MEL-28 melanoma
IGROV1 ovarian = system: IGROV1 ovarian
HCC-2998 colon = system: HCC-2998 colon
OVCAR-3 ovarian = system: OVCAR-3 ovarian
SF-268 CNS = system: SF-268 CNS
KM12 colon = system: KM12 colon
HCT-116 colon = system: HCT-116 colon
NCI-H23 lung = system: NCI-H23 lung
TK-10 renal = system: TK-10 renal
MOLT-4 leukemia = system: MOLT-4 leukemia
MDA-MB-435 = system: MDA-MB-435
SW-620 colon = system: SW-620 colon
SK-MEL-2 melanoma = system: SK-MEL-2 melanoma
SK-MEL-5 melanoma = system: SK-MEL-5 melanoma
SF-539 CNS = system: SF-539 CNS
SR leukemia = system: SR leukemia
MALME-3M melanoma = system: MALME-3M melanoma
HCT-15 colon = system: HCT-15 colon
HS 578T breast = system: HS 578T breast
MCF7 breast = system: MCF7 breast
MDA-N = system: MDA-N
COLO 205 colon = system: COLO 205 colon
NCI-H226 lung = system: NCI-H226 lung
RPMI-8226 leukemia = system: RPMI-8226 leukemia
M14 melanoma = system: M14 melanoma
NCI-H522 lung = system: NCI-H522 lung
NCI/ADR-RES ovarian = system: NCI/ADR-RES ovarian
HL-60(TB) leukemia = system: HL-60(TB) leukemia
OVCAR-4 ovarian = system: OVCAR-4 ovarian
SN12C renal = system: SN12C renal
OVCAR-8 ovarian = system: OVCAR-8 ovarian
UACC-62 melanoma = system: UACC-62 melanoma
CCRF-CEM leukemia = system: CCRF-CEM leukemia
SF-295 CNS = system: SF-295 CNS
BT-549 breast = system: BT-549 breast
T-47D breast = system: T-47D breast
CAKI-1 renal = system: CAKI-1 renal
U251 CNS = system: U251 CNS
UACC-257 melanoma = system: UACC-257 melanoma
HT29 colon = system: HT29 colon
786-0 renal = system: 786-0 renal
EKVX NSCLC = system: EKVX NSCLC
K-562 leukemia = system: K-562 leukemia
UO-31 renal = system: UO-31 renal
SK-OV-3 ovarian = system: SK-OV-3 ovarian
PC-3 prostate = system: PC-3 prostate
A498 renal = system: A498 renal
SNB-75 CNS = system: SNB-75 CNS
HOP-92 NSCLC = system: HOP-92 NSCLC
RXF 393 renal = system: RXF 393 renal
OVCAR-5 ovarian = system: OVCAR-5 ovarian

Measured: TGI

CO[C@H]1SC[C@H](OC(C)=O)[C@H](OC(C)=O)[C@H]1OC(C)=O
not listed: SK-OV-3 ovarian | PC-3 prostate | A498 renal | SNB-75 CNS | HOP-92 NSCLC | RXF 393 renal | OVCAR-5 ovarian
> 100 µM: all other assays above

CCP(=O)(OC)C1=CCN(C(=O)OCC[Si](C)(C)C)CC1 (configuration not stated)
not listed: HCT-116 colon | SR leukemia | SN12C renal | BT-549 breast
> 100 µM: all other assays above
